Test results taken from publication PMC5564600 (Oncotarget, 2017).

What was measured:
Assay in all cases: biochemical
Assay type in all cases: binding
panel of 442 kinases [1] = biological target: T1, panel of 442 kinases (Homo sapiens, UniProt Q9C098); settings: DCAMKL3; for remaining activity at 1 µM: read-out: % of control at 1 µM
T1 construct: purchased Ambit Biosciences (scanMAXX KINOMEscan)

panel of 442 kinases [2] = biological target: T2, panel of 442 kinases (Homo sapiens, UniProt Q15831); settings: kinase LKB1; for remaining activity at 1 µM: read-out: % of control at 1 µM
T2 construct: purchased Ambit Biosciences (scanMAXX KINOMEscan)
T2 sequence (Q15831 1-433): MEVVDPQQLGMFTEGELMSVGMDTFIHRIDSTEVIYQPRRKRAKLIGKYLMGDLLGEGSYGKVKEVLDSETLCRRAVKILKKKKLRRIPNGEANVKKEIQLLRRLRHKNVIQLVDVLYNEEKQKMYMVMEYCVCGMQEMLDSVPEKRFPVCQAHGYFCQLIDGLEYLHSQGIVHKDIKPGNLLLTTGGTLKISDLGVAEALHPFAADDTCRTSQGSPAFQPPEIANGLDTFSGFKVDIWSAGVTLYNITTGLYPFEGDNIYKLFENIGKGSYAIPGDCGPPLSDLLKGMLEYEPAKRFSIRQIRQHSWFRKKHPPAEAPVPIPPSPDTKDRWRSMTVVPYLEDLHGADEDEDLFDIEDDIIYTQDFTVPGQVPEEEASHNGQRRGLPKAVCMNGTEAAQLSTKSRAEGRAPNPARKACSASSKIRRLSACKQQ

panel of 442 kinases [3] = biological target: T3, panel of 442 kinases (Homo sapiens, UniProt P57078); settings: kinase RIPK4; for remaining activity at 1 µM: read-out: RIPK4 (% of control at 1 µM)
T3 construct: purchased Ambit Biosciences (scanMAXX KINOMEscan)
T3 sequence (P57078 1-832): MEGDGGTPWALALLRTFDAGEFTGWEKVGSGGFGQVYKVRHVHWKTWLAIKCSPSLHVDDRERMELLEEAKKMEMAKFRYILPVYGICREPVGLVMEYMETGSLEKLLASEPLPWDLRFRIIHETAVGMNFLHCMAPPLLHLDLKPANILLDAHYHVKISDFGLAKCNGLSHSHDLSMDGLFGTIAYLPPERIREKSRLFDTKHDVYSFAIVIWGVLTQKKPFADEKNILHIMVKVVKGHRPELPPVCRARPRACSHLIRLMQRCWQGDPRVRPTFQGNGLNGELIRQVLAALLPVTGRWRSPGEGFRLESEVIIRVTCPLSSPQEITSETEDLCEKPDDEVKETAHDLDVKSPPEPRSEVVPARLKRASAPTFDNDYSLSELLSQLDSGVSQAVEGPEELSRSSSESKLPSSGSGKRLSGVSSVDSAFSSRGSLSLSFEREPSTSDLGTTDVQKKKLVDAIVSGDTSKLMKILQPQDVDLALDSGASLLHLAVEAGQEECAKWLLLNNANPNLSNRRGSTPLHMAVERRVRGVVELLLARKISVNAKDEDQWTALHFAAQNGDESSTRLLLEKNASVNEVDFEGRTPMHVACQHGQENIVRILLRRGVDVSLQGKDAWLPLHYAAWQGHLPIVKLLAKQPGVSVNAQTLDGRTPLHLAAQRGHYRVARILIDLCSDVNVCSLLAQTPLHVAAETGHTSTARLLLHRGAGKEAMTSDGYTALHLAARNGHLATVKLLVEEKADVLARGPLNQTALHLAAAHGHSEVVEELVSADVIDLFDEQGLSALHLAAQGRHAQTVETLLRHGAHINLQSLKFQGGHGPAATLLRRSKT

panel of 442 kinases [4] = biological target: T4, panel of 442 kinases (Homo sapiens, UniProt Q9BQI3); settings: EIF2AK1; for remaining activity at 1 µM: read-out: % of control at 1 µM
T4 construct: purchased Ambit Biosciences (scanMAXX KINOMEscan)
T4 sequence (Q9BQI3 whole entry): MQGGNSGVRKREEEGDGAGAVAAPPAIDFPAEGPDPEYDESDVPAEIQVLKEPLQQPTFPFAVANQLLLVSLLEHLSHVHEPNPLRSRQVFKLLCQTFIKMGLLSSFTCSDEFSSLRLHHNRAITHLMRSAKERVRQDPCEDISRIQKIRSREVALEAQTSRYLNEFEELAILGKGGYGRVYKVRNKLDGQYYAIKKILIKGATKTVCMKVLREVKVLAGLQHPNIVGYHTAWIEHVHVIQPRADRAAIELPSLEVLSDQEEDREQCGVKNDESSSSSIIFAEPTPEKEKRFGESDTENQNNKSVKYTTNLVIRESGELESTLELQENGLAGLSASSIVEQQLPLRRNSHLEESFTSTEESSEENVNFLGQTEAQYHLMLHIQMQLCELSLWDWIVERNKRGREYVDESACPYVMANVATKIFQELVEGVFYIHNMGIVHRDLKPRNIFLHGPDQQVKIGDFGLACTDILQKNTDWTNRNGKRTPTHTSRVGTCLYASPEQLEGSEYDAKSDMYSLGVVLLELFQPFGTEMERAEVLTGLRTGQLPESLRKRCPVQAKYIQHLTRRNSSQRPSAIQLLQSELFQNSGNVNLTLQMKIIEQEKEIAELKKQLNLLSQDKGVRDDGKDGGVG

panel of 442 kinases [5] = biological target: T5, panel of 442 kinases (Homo sapiens, UniProt Q8NFD2); settings: ANKK1; for remaining activity at 1 µM: read-out: % of control at 1 µM
T5 construct: purchased Ambit Biosciences (scanMAXX KINOMEscan)
T5 sequence (Q8NFD2 1-765): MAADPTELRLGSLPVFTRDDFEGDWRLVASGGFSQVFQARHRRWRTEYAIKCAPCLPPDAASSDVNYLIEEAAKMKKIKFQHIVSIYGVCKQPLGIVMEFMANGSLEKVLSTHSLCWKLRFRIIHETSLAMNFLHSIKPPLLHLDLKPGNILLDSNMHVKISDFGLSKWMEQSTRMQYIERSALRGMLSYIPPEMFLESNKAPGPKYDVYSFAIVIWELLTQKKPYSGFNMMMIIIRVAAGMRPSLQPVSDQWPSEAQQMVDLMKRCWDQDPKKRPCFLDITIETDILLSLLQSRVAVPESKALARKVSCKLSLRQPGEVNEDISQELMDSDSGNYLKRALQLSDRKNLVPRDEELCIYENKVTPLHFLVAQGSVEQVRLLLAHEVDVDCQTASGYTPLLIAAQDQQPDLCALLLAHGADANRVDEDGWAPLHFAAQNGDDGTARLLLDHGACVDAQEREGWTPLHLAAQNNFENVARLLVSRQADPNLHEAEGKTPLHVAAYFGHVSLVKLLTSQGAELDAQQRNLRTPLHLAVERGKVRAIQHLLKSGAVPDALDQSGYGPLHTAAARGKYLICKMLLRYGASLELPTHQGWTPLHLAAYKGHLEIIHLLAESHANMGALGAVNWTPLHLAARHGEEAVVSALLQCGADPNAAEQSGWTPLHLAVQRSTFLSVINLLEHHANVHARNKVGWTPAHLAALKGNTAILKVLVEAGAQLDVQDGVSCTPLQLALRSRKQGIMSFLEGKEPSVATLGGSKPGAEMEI

panel of 442 kinases [6] = biological target: T6, panel of 442 kinases (Homo sapiens, UniProt Q8IU85); settings: CAMK1D; for remaining activity at 1 µM: read-out: % of control at 1 µM
T6 construct: purchased Ambit Biosciences (scanMAXX KINOMEscan)
T6 sequence (Q8IU85 whole entry): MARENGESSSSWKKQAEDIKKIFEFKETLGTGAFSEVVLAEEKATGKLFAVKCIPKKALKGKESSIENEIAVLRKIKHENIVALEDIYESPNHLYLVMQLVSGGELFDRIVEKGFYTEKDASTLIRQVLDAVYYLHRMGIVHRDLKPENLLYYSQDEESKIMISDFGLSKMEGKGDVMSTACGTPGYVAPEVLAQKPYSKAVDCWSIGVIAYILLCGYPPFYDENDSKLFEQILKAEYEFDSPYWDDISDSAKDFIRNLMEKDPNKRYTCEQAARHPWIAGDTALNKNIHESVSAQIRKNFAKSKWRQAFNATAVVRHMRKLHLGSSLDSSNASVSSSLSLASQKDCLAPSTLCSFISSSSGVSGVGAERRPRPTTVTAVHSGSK

panel of 442 kinases [7] = biological target: T7, panel of 442 kinases (Homo sapiens, UniProt Q2M2I8); settings: AAK1; for remaining activity at 1 µM: read-out: % of control at 1 µM
T7 construct: purchased Ambit Biosciences (scanMAXX KINOMEscan)
T7 sequence (Q2M2I8 whole entry): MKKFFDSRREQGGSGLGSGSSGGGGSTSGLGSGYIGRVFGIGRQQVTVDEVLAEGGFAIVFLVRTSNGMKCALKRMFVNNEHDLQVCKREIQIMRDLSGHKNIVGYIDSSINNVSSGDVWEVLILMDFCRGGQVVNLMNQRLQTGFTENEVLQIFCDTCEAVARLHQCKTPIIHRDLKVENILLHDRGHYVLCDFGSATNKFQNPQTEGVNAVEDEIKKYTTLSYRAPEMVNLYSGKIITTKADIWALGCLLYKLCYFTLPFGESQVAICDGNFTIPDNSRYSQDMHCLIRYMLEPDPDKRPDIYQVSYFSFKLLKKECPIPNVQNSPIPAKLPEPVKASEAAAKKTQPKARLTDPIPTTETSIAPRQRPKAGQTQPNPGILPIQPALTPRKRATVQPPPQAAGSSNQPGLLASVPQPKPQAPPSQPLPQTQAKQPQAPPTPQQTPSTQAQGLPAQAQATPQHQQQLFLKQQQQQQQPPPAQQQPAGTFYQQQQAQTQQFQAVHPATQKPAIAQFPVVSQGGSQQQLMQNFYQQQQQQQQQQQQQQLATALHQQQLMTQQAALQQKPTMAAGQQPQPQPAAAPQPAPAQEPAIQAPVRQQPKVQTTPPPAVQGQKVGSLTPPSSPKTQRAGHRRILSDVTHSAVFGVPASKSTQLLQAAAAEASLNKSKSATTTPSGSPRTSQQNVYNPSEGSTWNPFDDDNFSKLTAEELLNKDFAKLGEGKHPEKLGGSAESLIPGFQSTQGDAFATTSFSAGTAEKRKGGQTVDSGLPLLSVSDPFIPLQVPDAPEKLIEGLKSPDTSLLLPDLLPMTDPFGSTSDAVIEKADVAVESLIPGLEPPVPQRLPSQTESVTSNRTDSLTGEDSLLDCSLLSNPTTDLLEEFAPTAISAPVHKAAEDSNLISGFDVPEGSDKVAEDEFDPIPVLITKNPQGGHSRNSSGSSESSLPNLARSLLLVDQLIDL

[8] = 10 µM, read-out: % of control at 10 µM

T1 sequence (Q9C098 whole entry): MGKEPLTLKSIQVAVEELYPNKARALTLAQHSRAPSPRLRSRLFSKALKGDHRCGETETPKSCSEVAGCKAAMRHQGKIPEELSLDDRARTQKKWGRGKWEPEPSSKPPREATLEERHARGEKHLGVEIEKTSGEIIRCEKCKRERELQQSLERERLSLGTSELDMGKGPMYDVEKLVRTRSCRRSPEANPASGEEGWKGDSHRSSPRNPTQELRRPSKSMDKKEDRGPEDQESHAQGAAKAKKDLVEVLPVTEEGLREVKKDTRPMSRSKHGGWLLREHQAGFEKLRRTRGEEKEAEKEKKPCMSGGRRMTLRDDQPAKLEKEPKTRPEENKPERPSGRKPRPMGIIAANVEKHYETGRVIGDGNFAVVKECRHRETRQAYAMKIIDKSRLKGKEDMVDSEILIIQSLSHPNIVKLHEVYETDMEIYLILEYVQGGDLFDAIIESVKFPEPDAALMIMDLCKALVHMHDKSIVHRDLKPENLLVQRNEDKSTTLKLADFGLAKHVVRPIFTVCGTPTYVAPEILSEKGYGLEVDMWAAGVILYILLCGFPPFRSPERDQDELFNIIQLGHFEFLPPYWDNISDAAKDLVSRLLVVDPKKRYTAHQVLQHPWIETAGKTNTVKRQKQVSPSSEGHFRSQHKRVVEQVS

| SMILES | remaining activity at 1 µM (panel of 442 kinases [1]) | remaining activity at 10 µM (panel of 442 kinases [1]; [8]) | remaining activity at 1 µM (panel of 442 kinases [2]) | remaining activity at 10 µM (panel of 442 kinases [2]; [8]) | remaining activity at 1 µM (panel of 442 kinases [3]) | remaining activity at 10 µM (panel of 442 kinases [3]; 10 µM, read-out: RIPK4 (% of control at 10 µM)) | remaining activity at 1 µM (panel of 442 kinases [4]) | remaining activity at 10 µM (panel of 442 kinases [4]; [8]) | remaining activity at 1 µM (panel of 442 kinases [5]) | remaining activity at 10 µM (panel of 442 kinases [5]; [8]) | remaining activity at 1 µM (panel of 442 kinases [6]) | remaining activity at 10 µM (panel of 442 kinases [6]; [8]) | remaining activity at 1 µM (panel of 442 kinases [7]) | remaining activity at 10 µM (panel of 442 kinases [7]; [8]) |
| --- | --- | --- | --- | --- | --- | --- | --- | --- | --- | --- | --- | --- | --- | --- |
| Nc1cc(C(F)(F)F)c(-c2cc(N3CCOCC3)nc(N3CCOCC3)n2)cn1 [Buparlisib] | 100% | 100% | 100% | 99% | 82% | 88% | 92% | 100% | 91% | 94% | 100% | 100% | 97% | 100% |
| Cn1c(=O)n(-c2ccc(C(C)(C)C#N)cc2)c2c3cc(-c4cnc5ccccc5c4)ccc3ncc21 [Dactolisib, 2-methyl-2-[4-(3-methyl-2-oxo-8-quinolin-3-yl-2,3-dihydroimidazo[4,5-c]quinolin-1-yl)-phenyl] propionitrile] | 100% |  | 93% |  | 57% |  | 94% |  | 100% |  | 87% |  | 84% |  |
| COc1ncc(-c2ccc3nccc(-c4ccnnc4)c3c2)cc1NS(=O)(=O)c1ccc(F)cc1F [Omipalisib] | 100% |  | 100% |  | 70% |  | 100% |  | 100% |  | 87% |  | 66% |  |
| FC(F)c1nc2ccccc2n1-c1nc(N2CCOCC2)nc(N2CCOCC2)n1 [ZSTK474, 2-(difluoromethyl)-1-[4,6-di(4-morpholinyl)-1,3,5-triazin-2-yl]-1H-benzimidazole] | 100% |  | 100% |  | 77% |  | 77% |  | 100% |  | 100% |  | 100% |  |
